Data taken from patent US12673961B2 (Agios Pharmaceuticals, Inc., priority 2022, dated 2026).
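Further: Ten-point dose curve from 2-fold serial dilutions, run in duplicate at 0.5% DMSO final, tracer step used 20 µM sepiapterin and 800 µM labeled phenylalanine.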

These compounds were tested against T1, human PAH with the R408W mutation (Homo sapiens, UniProt P00439, R408W) (assay: Cell Based Phenylalanine Flux Assay). Conditions: A375 cells expressing human R408W PAH; 24 hrs with compound, then sepiapterin and 13C9,15N-Phenylalanine for 4 hours; 13C-Tyrosine by LC-MS; average where tested multiple times; read-out: AC50.
T1 construct: expressed in transfected cells
T1 sequence (P00439 1-452 R408W): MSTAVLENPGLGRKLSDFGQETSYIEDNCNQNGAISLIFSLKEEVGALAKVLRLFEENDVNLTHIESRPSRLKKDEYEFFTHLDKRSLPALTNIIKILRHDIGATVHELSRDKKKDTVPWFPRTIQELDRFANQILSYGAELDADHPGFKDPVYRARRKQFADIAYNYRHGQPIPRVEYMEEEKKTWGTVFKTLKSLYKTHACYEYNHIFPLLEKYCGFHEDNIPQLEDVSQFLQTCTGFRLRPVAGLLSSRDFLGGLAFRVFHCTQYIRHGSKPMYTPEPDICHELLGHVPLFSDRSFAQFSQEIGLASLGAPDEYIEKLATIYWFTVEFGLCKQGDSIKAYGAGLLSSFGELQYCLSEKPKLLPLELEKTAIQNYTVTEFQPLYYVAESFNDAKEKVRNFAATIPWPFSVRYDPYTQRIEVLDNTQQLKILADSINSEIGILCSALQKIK
In the case of `Clc1cccn2nc([C@@H]3c4nc[nH]c4CCN3c3nnc(-c4ccncn4)o3)cc12` [Example 2182, (S)-2-(4-(4-chloropyrazolo [1,5-a]pyridin-2-yl)-1,4,6,7-tetrahydro-5H-imidazo[4,5-c]pyridin-5-yl)-5-(pyrimidin-4-yl)-1,3,4-oxadiazole], the AC50 is reported as 500 to 1000 nM.
With `Cc1cccn2nc([C@H]3c4nc[nH]c4CCN3c3nnc(C4(C)CC4)o3)cc12` [Example 2188, (R)-2-(1-methylcyclopropyl)-5-(4-(4-methylpyrazolo[1,5-a]pyridin-2-yl)-1,4,6,7-tetrahydro-5H-imidazo[4,5-c]pyridin-5-yl)-1,3,4-oxadiazole] the AC50 was greater than 5000 nM.
`Cc1ncccc1-c1nnc(N2CCc3[nH]cnc3[C@H]2c2cc3c(C)cccn3n2)o1` [Example 2206, (S)-2-(4-(4-methylpyrazolo [1,5-a]pyridin-2-yl)-1,4,6,7-tetrahydro-5H-imidazo [4,5-c]pyridin-5-yl)-5-(2-methylpyridin-3-yl)-1,3,4-oxadiazole] was tested, and the AC50 was 500 to 1000 nM.
`Cc1ncccc1-c1nnc(N2CCc3[nH]cnc3[C@H]2c2cc3c(C(F)(F)F)cccn3n2)o1` [Example 2208, (S)-2-(2-methylpyridin-3-yl)-5-(4-(4-(trifluoromethyl)pyrazolo [1,5-a]pyridin-2-yl)-1,4,6,7-tetrahydro-5H-imidazo [4,5-c]pyridin-5-yl)-1,3,4-oxadiazole] showed an AC50 of 500 to 1000 nM.
`Cc1ncccc1-c1nnc(N2CCc3[nH]cnc3[C@H]2c2cc3c(C(F)F)cccn3n2)o1` [Example 2210, (S)-2-(4-(4-(difluoromethyl)pyrazolo[1,5-a]pyridin-2-yl)-1,4,6,7-tetrahydro-5H-imidazo [4,5-c]pyridin-5-yl)-5-(2-methylpyridin-3-yl)-1,3,4-oxadiazole] gave an AC50 of 1000 to 5000 nM.
`Cc1ncccc1-c1nnc(N2CCc3[nH]cnc3[C@H]2c2cc3c(F)cccn3n2)o1` [Example 2212, (S)-2-(4-(4-fluoropyrazolo [1,5-a]pyridin-2-yl)-1,4,6,7-tetrahydro-5H-imidazo [4,5-c]pyridin-5-yl)-5-(2-methylpyridin-3-yl)-1,3,4-oxadiazole] gave an AC50 of less than 500 nM.
With `Cc1ncccc1-c1nnc(N2CCc3[nH]cnc3[C@@H]2c2cc3c(F)cccn3n2)o1` [Example 2213, (R)-2-(4-(4-fluoropyrazolo [1,5-a]pyridin-2-yl)-1,4,6,7-tetrahydro-5H-imidazo [4,5-c]pyridin-5-yl)-5-(2-methylpyridin-3-yl)-1,3,4-oxadiazole] the AC50 was greater than 5000 nM.
For `Cc1cccn2nc([C@@H]3c4nc[nH]c4CCN3C(=O)c3nc(C(F)F)nn3C)cc12` [Example 2214, (S)-(3-(difluoromethyl)-1-methyl-1H-1,2,4-triazol-5-yl)(4-(4-methylpyrazolo[1,5-a]pyridin-2-yl)-6,7-dihydro-1H-imidazo[4,5-c]pyridin-5(4H)-yl)methanone], the AC50 was less than 500 nM.
In the case of `CC(C)(O)c1ncc(C(=O)N2CCc3[nH]cnc3[C@H]2c2cc3c(Cl)cccn3n2)o1` [Example 2216], the AC50 is reported as 500 to 1000 nM.
In the case of `Cc1nnc(C(=O)N2CCc3[nH]cnc3[C@H]2c2cc3c(OC(F)(F)F)cccn3n2)o1` [Example 2218, (S)-(5-methyl-1,3,4-oxadiazol-2-yl)(4-(4-(trifluoromethoxy)pyrazolo [1,5-a]pyridin-2-yl)-6,7-dihydro-1H-imidazo[4,5-c]pyridin-5(4H)-yl)methanone], the AC50 is reported as 1000 to 5000 nM.
`Cc1nnc(C(=O)N2CCc3[nH]cnc3[C@@H]2c2cc3c(OC(F)(F)F)cccn3n2)o1` [Example 2219, (R)-(5-methyl-1,3,4-oxadiazol-2-yl)(4-(4-(trifluoromethoxy)pyrazolo [1,5-a]pyridin-2-yl)-6,7-dihydro-1H-imidazo[4,5-c]pyridin-5(4H)-yl)methanone] gave an AC50 greater than 5000 nM.
For `CC1(c2nnc(N3CCc4[nH]cnc4[C@@H]3c3cc4c(C5CC5)cccn4n3)o2)CC1` [Example 2226, (R)-2-(4-(4-cyclopropylpyrazolo [1,5-a]pyridin-2-yl)-1,4,6,7-tetrahydro-5H-imidazo [4,5-c]pyridin-5-yl)-5-(1-methylcyclopropyl)-1,3,4-oxadiazole], the AC50 was greater than 5000 nM.
In the case of `CC1(c2nnc(N3CCc4[nH]cnc4[C@H]3c3cc4c(C5CC5)cccn4n3)o2)CC1` [Example 2227, (S)-2-(4-(4-cyclopropylpyrazolo [1,5-a]pyridin-2-yl)-1,4,6,7-tetrahydro-5H-imidazo [4,5-c]pyridin-5-yl)-5-(1-methylcyclopropyl)-1,3,4-oxadiazole], the AC50 is reported as 500 to 1000 nM.
In the case of `CC(C)c1cccn2nc([C@H]3c4nc[nH]c4CCN3c3nnc(C4(C)CC4)o3)cc12` [Example 2228, (R)-2-(4-(4-isopropylpyrazolo [1,5-a]pyridin-2-yl)-1,4,6,7-tetrahydro-5H-imidazo [4,5-c]pyridin-5-yl)-5-(1-methylcyclopropyl)-1,3,4-oxadiazole], the AC50 is reported as greater than 5000 nM.
`CC(C)c1cccn2nc([C@@H]3c4nc[nH]c4CCN3c3nnc(C4(C)CC4)o3)cc12` [Example 2229, (S)-2-(4-(4-isopropylpyrazolo [1,5-a]pyridin-2-yl)-1,4,6,7-tetrahydro-5H-imidazo [4,5-c]pyridin-5-yl)-5-(1-methylcyclopropyl)-1,3,4-oxadiazole] gave an AC50 of less than 500 nM.
In the case of `CC(C)c1cccn2nc([C@H]3c4nc[nH]c4CCN3c3nnc(C(C)(F)F)o3)cc12` [Example 2230, (R)-2-(1,1-difluoroethyl)-5-(4-(4-isopropylpyrazolo[1,5-a]pyridin-2-yl)-1,4,6,7-tetrahydro-5H-imidazo[4,5-c]pyridin-5-yl)-1,3,4-oxadiazole], the AC50 is reported as greater than 5000 nM.
In the case of `CC(F)(F)c1nnc(N2CCc3[nH]cnc3[C@@H]2c2cc3c(Cl)cccn3n2)o1` [Example 2232, (R)-2-(4-(4-chloropyrazolo [1,5-a]pyridin-2-yl)-1,4,6,7-tetrahydro-5H-imidazo [4,5-c]pyridin-5-yl)-5-(1,1-difluoroethyl)-1,3,4-oxadiazole], the AC50 is reported as greater than 5000 nM.
Work on `CC(F)(F)c1nnc(N2CCc3[nH]cnc3[C@H]2c2cc3c(Cl)cccn3n2)o1` [Example 2233, (S)-2-(4-(4-chloropyrazolo [1,5-a]pyridin-2-yl)-1,4,6,7-tetrahydro-5H-imidazo [4,5-c]pyridin-5-yl)-5-(1,1-difluoroethyl)-1,3,4-oxadiazole] yielded an AC50 of less than 500 nM.
Compound `Cc1ncccc1-c1nnc(N2CCc3[nH]cnc3[C@@H]2c2cc3c(Cl)cccn3n2)o1` [Example 2237, (R)-2-(4-(4-chloropyrazolo [1,5-a]pyridin-2-yl)-1,4,6,7-tetrahydro-5H-imidazo [4,5-c]pyridin-5-yl)-5-(2-methylpyridin-3-yl)-1,3,4-oxadiazole] has an AC50 greater than 5000 nM.
In the case of `O=C(c1cnc(-c2cnccn2)o1)N1CCc2[nH]cnc2[C@H]1c1cc2c(C(F)F)cccn2n1` [Example 2242, (S)-(4-(4-(difluoromethyl)pyrazolo[1,5-a]pyridin-2-yl)-1,4,6,7-tetrahydro-5H-imidazo [4,5-c]pyridin-5-yl)(2-(pyrazin-2-yl)oxazol-5-yl) methanone], the AC50 is reported as 500 to 1000 nM.
With `O=C(c1cnc(-c2cnccn2)o1)N1CCc2[nH]cnc2[C@@H]1c1cc2c(C(F)F)cccn2n1` [Example 2243] the AC50 was greater than 5000 nM.
`FC(F)c1nnc(N2CCc3[nH]cnc3[C@H]2c2cc3c(OC(F)(F)F)cccn3n2)o1` [Example 2251, (S)-2-(difluoromethyl)-5-(4-(4-(trifluoromethoxy)pyrazolo [1,5-a]pyridin-2-yl)-1,4,6,7-tetrahydro-5H-imidazo [4,5-c]pyridin-5-yl)-1,3,4-oxadiazole] showed an AC50 of less than 500 nM.
`FC(F)(F)Oc1cccn2nc([C@H]3c4nc[nH]c4CCN3c3nnc(C(F)(F)F)o3)cc12` [Example 2252, (R)-2-(4-(4-(trifluoromethoxy)pyrazolo[1,5-a]pyridin-2-yl)-1,4,6,7-tetrahydro-5H-imidazo[4,5-c]pyridin-5-yl)-5-(trifluoromethyl)-1,3,4-oxadiazole] showed an AC50 of 500 to 1000 nM.
With `CC1(c2nnc(N3CCc4[nH]cnc4[C@@H]3c3cc4c(Cl)cccn4n3)o2)CC1` [Example 2258, (R)-2-(4-(4-chloropyrazolo [1,5-a]pyridin-2-yl)-1,4,6,7-tetrahydro-5H-imidazo [4,5-c]pyridin-5-yl)-5-(1-methylcyclopropyl)-1,3,4-oxadiazole] the AC50 was greater than 5000 nM.
In the case of `CC(C)c1cccn2nc([C@@H]3c4nc[nH]c4CCN3c3nnc(-c4cccnc4)o3)cc12` [Example 2261, (S)-2-(4-(4-isopropylpyrazolo [1,5-a]pyridin-2-yl)-1,4,6,7-tetrahydro-5H-imidazo [4,5-c]pyridin-5-yl)-5-(pyridin-3-yl)-1,3,4-oxadiazole], the AC50 is reported as 500 to 1000 nM.
`Clc1cccn2nc([C@@H]3c4nc[nH]c4CCN3c3nnc(-c4cccnc4)o3)cc12` [Example 2262, (S)-2-(4-(4-chloropyrazolo [1,5-a]pyridin-2-yl)-1,4,6,7-tetrahydro-5H-imidazo[4,5-c]pyridin-5-yl)-5-(pyridin-3-yl)-1,3,4-oxadiazole] gave an AC50 of 500 to 1000 nM.
Compound `Clc1cccn2nc([C@H]3c4nc[nH]c4CCN3c3nnc(-c4cccnc4)o3)cc12` [Example 2263, (R)-2-(4-(4-chloropyrazolo [1,5-a]pyridin-2-yl)-1,4,6,7-tetrahydro-5H-imidazo[4,5-c]pyridin-5-yl)-5-(pyridin-3-yl)-1,3,4-oxadiazole] has an AC50 greater than 5000 nM.
`Cc1cccn2nc([C@@H]3c4nc[nH]c4CCN3c3nnc(-c4cccnc4F)o3)cc12` [Example 2264, (S)-2-(2-fluoropyridin-3-yl)-5-(4-(4-methylpyrazolo[1,5-a]pyridin-2-yl)-1,4,6,7-tetrahydro-5H-imidazo[4,5-c]pyridin-5-yl)-1,3,4-oxadiazole] showed an AC50 of 500 to 1000 nM.
